Where a name gives a salt, the structure may show the parent alone.
Assays:
human GnRH receptors = target: T1, human GnRH receptors (Homo sapiens, UniProt P30968); experiment: 125I-leuprolerin GnRH receptor binding inhibition test, human (CHO cell membrane fraction); settings: human GnRH receptors expressed in CHO cells, 25° C., 60 minutes, read-out: Binding inhibitory activity (IC50 μM) Human
T1 construct: expressed in transfected cells; host or cells: CHO (Chinese hamster ovary) cells, membrane fraction
T1 sequence (P30968 1-328): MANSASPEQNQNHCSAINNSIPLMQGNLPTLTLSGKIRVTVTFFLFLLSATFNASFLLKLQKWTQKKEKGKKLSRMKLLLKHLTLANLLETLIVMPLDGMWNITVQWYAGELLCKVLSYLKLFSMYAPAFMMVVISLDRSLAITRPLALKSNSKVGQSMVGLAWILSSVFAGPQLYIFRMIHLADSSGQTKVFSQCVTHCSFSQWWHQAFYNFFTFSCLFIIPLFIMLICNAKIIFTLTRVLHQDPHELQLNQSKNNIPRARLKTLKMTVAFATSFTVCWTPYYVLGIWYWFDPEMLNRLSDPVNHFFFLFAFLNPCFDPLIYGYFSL
Procedure: Ten (10) μl of 3×10^4 M aqueous leuprolerin solution and 10 μl of 0.01 mg/ml lactoperoxidase were taken in a tube and 10 μl of Na^125 I solution (37 MBq) was added. After stirring, 10 μl of 0.001% H2 O2 was added and the reaction was conducted at room temperature for 20 minutes. Then, 700 μl of 0.05% TFA solution was added to the tube to terminate the reaction and the reaction mixture was purified by reverse-phase HPLC. The HPLC conditions are shown below. ^125 I-leuprolerin was eluted after a retention time of 26-27 minutes. (D) Preparation of a CHO (Chinese Hamster Ovarian) Cell Membrane Fraction Containing Human GnRH Receptors […] To the cell pellet was added 10 ml of cell homogenate buffer (10 mM NaHCO3, 5 mM EDTA, pH 7.5) and the mixture was homogenized using a Polytron homogenizer. The homogenate was centrifuged at 400×G for 15 minutes. The supernatant was taken in an ultracentrifuge tube and centrifuged at 100,000×G for 1 hour to provide a membrane fraction pellet. […] After filtration, the radioactivity of ^125 I-leuprolerin remaining on the filter was measured with a γ-counter. The expression (TB-SB)/(TB-NSB)×100 (where SB=radioactivity with the compound added, TB=maximum bound radioactivity, NSB=nonspecifically bound radioactivity) was calculated to find the binding inhibition rate of each test compound.

[1] = target: T2, GnRH receptors (bovine pituitary anterior lobe membrane fraction) (Bos taurus, UniProt P32236); experiment: 125I-leuprolerin GnRH receptor binding inhibition test, bovine pituitary anterior lobe membrane fraction; settings: 4° C., 90 minutes, read-out: Binding inhibitory activity (IC50 μM) Bovine
T2 construct: A bovine pituitary anterior lobe membrane fraction containing GnRH receptors was prepared; from tissue; host or cells: bovine pituitary anterior lobe, membrane fraction
T2 sequence (P32236 1-328): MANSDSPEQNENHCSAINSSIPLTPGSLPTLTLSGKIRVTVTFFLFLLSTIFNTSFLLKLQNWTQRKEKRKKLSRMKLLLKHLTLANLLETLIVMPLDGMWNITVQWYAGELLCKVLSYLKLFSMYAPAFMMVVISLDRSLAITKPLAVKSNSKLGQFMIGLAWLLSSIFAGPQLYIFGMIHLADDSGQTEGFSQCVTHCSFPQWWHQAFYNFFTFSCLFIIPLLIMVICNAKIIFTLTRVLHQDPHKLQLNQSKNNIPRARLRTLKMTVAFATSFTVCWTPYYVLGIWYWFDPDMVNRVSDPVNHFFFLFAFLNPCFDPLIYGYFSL
Procedure: Ten (10) μl of 3×10^4 M aqueous leuprolerin solution and 10 μl of 0.01 mg/ml lactoperoxidase were taken in a tube and 10 μl of Na^125 I solution (37 MBq) was added. After stirring, 10 μl of 0.001% H2 O2 was added and the reaction was conducted at room temperature for 20 minutes. Then, 700 μl of 0.05% TFA solution was added to the tube to terminate the reaction and the reaction mixture was purified by reverse-phase HPLC. The HPLC conditions are shown below. ^125 I-leuprolerin was eluted after a retention time of 26-27 minutes. (C) Preparation of a Bovine Pituitary Anterior Lobe Membrane Fraction Containing GnRH Receptors A bovine pituitary anterior lobe membrane fraction containing GnRH receptors was prepared by the same procedure as described under (B). However, a 10,000×G centrifugation supernatant was recentrifuged at 100,000×G for 1 hour to provide the membrane fraction pellet. […] For the rat and human membrane fractions prepared in (B) and (D), each membrane fraction was diluted with assay buffer to a concentration of 200 μg/ml and distributed in 188 μl portions into tubes. As to the bovine membrane fraction prepared in (C), the membrane fraction was diluted with assay buffer to 750 μg/ml and distributed in 188 μl portions into tubes. […] Where the rat or bovine pituitary anterior lobe membrane fraction was used, the reaction was conducted at 4° C. for 90 minutes. Where the membrane fraction of the CHO with human GnRH receptors expressed was used, the reaction was carried out at 25° C. for 60 minutes. […] After filtration, the radioactivity of ^125 I-leuprolerin remaining on the filter was measured with a γ-counter. The expression (TB-SB)/(TB-NSB)×100 (where SB=radioactivity with the compound added, TB=maximum bound radioactivity, NSB=nonspecifically bound radioactivity) was calculated to find the binding inhibition rate of each test compound.

SMILES | IC50 (human GnRH receptors) [µM] | IC50 [1] [µM]
COc1cc2c(cc1OC)CC1(CCCCN1CCCCC1(c3ccccc3)COCc3ccccc31)CC2 (stereo not shown) [Example I-52, 3,4-Dihydro-6,7-dimethoxy-1'-[4-(4-phenylisochroman-4-yl)butyl]spiro[naphthalene-2(1H),2'-piperidine] hydrochloride] | 6 | 5
c1ccc(CCNCCCC2(c3ccccc3)COCc3ccccc32)cc1 (stereo not drawn) [Example I-24, 4-[3-(β-Phenethylamino)propyl]-4-phenylisochroman hydrochloride] |  | 7
c1ccc(C2(CCCN3CCCCC34CCc3ccccc3C4)COCc3ccccc32)cc1 (stereo not shown) [Example I-35, 3,4-Dihydro-1'-[3-(4-phenylisochroman-4-yl)propyl]spiro[naphthalene-2(1H),2'-piperidine] hydrochloride] |  | 6
COC(=O)c1cccc(CNCCCC2(c3ccccc3)COCc3ccccc32)c1 (stereo not drawn) [Example I-45, Methyl α-[3-(4-Phenylisochroman-4-yl)propylamino]-m-toluate hydrochloride] | 6 | 5
COc1ccc2c(c1)CCC1(CCCCN1CCCC1(c3ccccc3)COCc3ccccc31)C2 (stereo not shown) [Example I-36, 3,4-Dihydro-6-methoxy-1'-[3-(4-phenylisochroman-4-yl)propyl]spiro[naphthalene-2(1H),2'-piperidine] hydrochloride] |  | 11

Source: patent publication US5654296A, “Condensed heterocyclic compounds, their production and use” (priority 1994, dated 1997)
